The source of these data is US20240245691A1 (Sitryx Therapeutics Limited, priority 2021, published 2024).

One may read the half-life as the time in which the quantity being followed falls by half. For orientation: IC50 means the concentration at which inhibition is half-maximal.

Read-outs that look alike come from different tables or passages of the source. Some results are limits rather than exact numbers.

The subject of data set [1] is cryo-preserved hepatocytes. The data set is described as follows: Hepatocyte stability assay, mouse. Format: in vitro ADME. As to conditions: mouse, hepatocytes. From the text:
(§1) Defrosted cryo-preserved hepatocytes (viability>70%) were used to determine the metabolic stability of a compound via calculation of intrinsic clearance (CIint; a measure of the removal of a compound from the liver in the absence of blood flow and cell binding). Clearance data are particularly important for in vitro work as they can be used in combination with in vivo data to predict the half-life and oral bioavailability of a drug.
(§2) The metabolic stability in hepatocytes assay involved a time-dependent reaction using both positive and negative controls. The cells must be pre-incubated at 37° C. then spiked with test compound (and positive control); samples taken at pre-determined time intervals were analysed to monitor the change in concentration of the initial drug compound over 60 minutes. A buffer incubation reaction (with no hepatocytes present) acted as a negative control and two cocktail solutions, containing compounds with known high and low clearance values (verapamil/7-hydroxycoumarin and propranolol/diltiazem), acted as positive controls. • 1. The assay was run with a cell concentration of 0.5×10^6 cells/mL in Leibovitz buffer. • 2. All compounds and controls were run in duplicate. • 3. Compound concentration was 10 μM. • 4. All compounds and controls were incubated with both cells and buffer to show turnover is due to hepatic metabolism. • 5. All wells on the incubation plate had 326.7 μL of either cells or buffer added. • 6. Prior to assay, cell and buffer-only incubation plates were preincubated for 10 mins at 37° C. • 7. The assay was initiated by adding compounds, 3.3 μL of 1 mM in 10% DMSO-90% Buffer; final DMSO concentration is 0.1%. • 8. Samples were taken at regular timepoints (0, 5, 10, 20, 40, 60 min) until 60 mins. • 9. Sample volume was 40 μL and added to 160 μL of crash solvent (acetonitrile with internal standard) and stored on ice. • 10. At the end of the assay, the crash plates were centrifuged at 3500 rpm for 20 mins at 4° C. • 11. 80 μL of clear supernatant was removed and mixed with 80 μL of deionised water before being analysed by LC-MS/MS.
(§3) Raw LC-MS/MS data were exported to, and analysed in, Microsoft Excel for determination of intrinsic clearance. The percentage remaining of a compound was monitored using the peak area of the initial concentration as 100%. Intrinsic clearance and half-life values were calculated using a graph of the natural log of percentage remaining versus the time of reaction in minutes.
(§4) 4-Octyl itaconate was included as a comparator compound.

A short description of data set [2]: Hepatocyte stability assay, mouse. The data set is classed as in vitro ADME. As to conditions: mouse, hepatocytes, T½.
Excerpt: as §1, §2, §3, §4

In data set [3] the test system is cryo-preserved hepatocytes. The data set is described as follows: Hepatocyte stability assay, human. Format: in vitro ADME. As to conditions: human, hepatocytes.
Excerpt: as §1, §2, §3, §4

Data set [4] is described as follows: Hepatocyte stability assay, human. Format: in vitro ADME. As to conditions: human, hepatocytes, T½.
Excerpt: as §1, §2, §3, §4

For the next data set, the system named is IL-6. As to the kind of experiment: THP-1 AlphaLISA IL-6 cytokine assay (differentiated THP-1 cells). Format: cell-based. The following applies: Homo sapiens. On the procedure: (§5) Measuring Inhibitory Effects on IL-1V Cytokine and IL-6 Output from THP-1s
(§6) The cytokine inhibition profiles of compounds of formula (I) were determined in a differentiated THP-1 cell assay. All assays were performed in RPMI-1640 growth medium (Gibco), supplemented with 10% fetal bovine serum (FBS; Gibco), 1% penicillin-streptomycin and 1% sodium pyruvate unless specified otherwise. The IL-1β and IL-6 cytokine inhibition assays were run in a background of differentiated THP-1 cells as described below. All reagents described were from Sigma-Aldrich unless specified otherwise. Compounds were prepared as 10 mM DMSO stocks.
(§7) THP-1 cells were expanded as a suspension up to 80% confluence in appropriate growth medium. Cells were harvested, suspended, and treated with an appropriate concentration of phorbol 12-myristate 13-acetate (PMA) over a 72 hr period (37° C./5% CO2).
(§8) Following 72 hrs of THP-1 cell incubation, cellular medium was removed and replaced with fresh growth media containing 1% of FBS. Working concentrations of compounds were prepared separately in 10% FBS treated growth medium and pre-incubated with the cells for 30 minutes (37° C./5% CO2). Following the 30 minute compound pre-incubation, THP-1s were treated with an appropriate concentration of LPS and the THP-1s were subsequently incubated for a 24 hr period (37° C./5% CO2). An appropriate final concentration of Nigericin was then dispensed into the THP-1 plates and incubated for 1 hour (37° C./5% CO2) before THP-1 supernatants were harvested and collected in separate polypropylene 96-well holding plates.
(§9) Reagents from each of the IL-1β and IL-6 commercial kits (Perkin Elmer) were prepared and run according to the manufacturer's instructions. Subsequently, fluorescence signal detection in a microplate reader was measured (EnVision® Multilabel Reader, Perkin Elmer).
(§10) Percentage inhibition was calculated per cytokine by normalising the sample data to the high and low controls used within each plate (+/−LPS respectively).
(§11) Dimethyl itaconate and 4-octyl itaconate were included as comparator compounds.

A further data set relates to IL-1β. As to the kind of experiment: THP-1 AlphaLISA IL-1β cytokine assay (differentiated THP-1 cells). The data set is classed as cell-based. As to conditions: Homo sapiens. On the procedure: as §5, §6, §7, §8, §9, §10, §11
Background: Bead proximity is the source of the signal in Alpha formats.

[5] abbreviates: THP-1, differentiated THP-1 cells, LPS 24 hr then Nigericin 1 hour, read-out: IL-6 (IC50).
[6] abbreviates: THP-1, differentiated THP-1 cells, LPS 24 hr then Nigericin 1 hour, read-out: IL-1β (IC50).

`C=C(CC(=O)NC1(c2ccc(C(F)(F)F)cc2)COC1)C(=O)O` [Example 13, 2-methylene-4-oxo-4-((3-(4-(trifluoromethyl)phenyl)oxetan-3-yl)amino)butanoic acid]: the Clint is recorded as below 3 μL min^−1 10^−6 cells in data set [1] and 3 μL min^−1 10^−6 cells in data set [3]. In addition, the half-life at 10 μM in data set [2] was above 7.67 h; in data set [4], 7.17 h. The values for the IC50 in the data set on IL-6 (setting [5]) and with IL-1β (setting [6]) were above 31.6 µM and 19.5 µM, respectively.

As to `C=C(CC(=O)NC1(c2ccc(C(F)(F)F)cc2)CCCC1)C(=O)O` [Example 14, 2-methylene-4-oxo-4-((1-(4-(trifluoromethyl)phenyl)cyclopentyl)amino) butanoic acid], the results for the Clint in data set [1] and in data set [3] were 4 μL min^−1 10^−6 cells and below 3 μL min^−1 10^−6 cells, respectively. Moreover, the half-life at 10 μM was 6.48 h in data set [2] and above 7.67 h in data set [4]. Moreover, the IC50 with IL-6 (setting [5]) was above 100 µM; in the data set on IL-1β (setting [6]), 58.3 µM.

For the compound `C=C(CC(=O)N[C@@H](C)c1ccc(Br)cc1)C(=O)O` [Example 16, (S)-4-((1-(4-bromophenyl)ethyl)amino)-2-methylene-4-oxobutanoic acid], the Clint is 7 μL min^−1 10^−6 cells in data set [1] and 6 μL min^−1 10^−6 cells in data set [3]. The half-life at 10 μM in data set [2] was 4.1 h; in data set [4], 4.68 h. Moreover, the IC50 with IL-6 (setting [5]) was above 56.2 µM; with IL-1β (setting [6]), 3.8 µM; in the data set with IL-1β (THP-1, differentiated THP-1 cells, footnote a: data from repeated experiments, read-out: IL-1β (IC50), data from repeated experiments), 4.9 µM.

For `C=C(CC(=O)N[C@@H](C)c1ccc(SC(F)(F)F)cc1)C(=O)O` [Example 17], the Clint in data set [1] is recorded as 16 μL min^−1 10^−6 cells; in data set [3], 8 μL min^−1 10^−6 cells. Also, the half-life at 10 μM in data set [2] came to 1.58 h; in data set [4] it was 3.72 h. The IC50 in the data set with IL-6 (setting [5]) is above 31.6 µM; with IL-1β (setting [6]), 13.9 µM.

With `C=C(CC(=O)N[C@@H](C)c1ccc(C(F)(F)F)c(F)c1)C(=O)O` [Example 19, (S)-4-((1-(3-fluoro-4-(trifluoromethyl)phenyl)ethyl)amino)-2-methylene-4-oxobutanoic acid], the Clint in data set [1] and in data set [3] was 4 μL min^−1 10^−6 cells in each case. For the same compound, the values for the half-life at 10 μM in data set [2] and in data set [4] were 6.7 h and 7.28 h, respectively. Also, the IC50 in the data set on IL-6 (setting [5]) was above 31.6 µM; in the data set with IL-1β (setting [6]), 8.8 µM.

For the compound `C=C(CC(=O)N[C@@H](C)c1ccc(C(F)(F)C(F)(F)F)cc1)C(=O)O` [Example 20, (S)-2-methylene-4-oxo-4-((1-(4-(perfluoroethyl)phenyl)ethyl)amino)butanoic acid], the Clint is recorded as 38 μL min^−1 10^−6 cells in data set [1] and below 3 μL min^−1 10^−6 cells in data set [3]. The half-life at 10 μM in data set [2] was 0.633 h; in data set [4], above 7.67 h. Moreover, the IC50 in the data set on IL-6 (setting [5]) is above 100 µM; with IL-1β (setting [6]) it was 17.4 µM.

As to `C=C(CC(=O)N[C@H](c1ccc(C(F)(F)F)cc1)C(F)(F)F)C(=O)O` [Example 21, (R)-2-methylene-4-oxo-4-((2,2,2-trifluoro-1-(4-(trifluoromethyl)phenyl)ethyl)amino)butanoic acid], the Clint was 76 μL min^−1 10^−6 cells in data set [1] and below 3 μL min^−1 10^−6 cells in data set [3]. Moreover, the figures for the half-life at 10 μM in data set [2] and in data set [4] were 0.367 h and above 7.67 h, respectively. The IC50 with IL-6 (setting [5]) is above 100 µM; in the data set on IL-1β (setting [6]), 4 µM.

For `C=C(CC(=O)N[C@@H](C)c1ccc(C(F)(F)F)cc1)C(=O)OCCN(C)C` [Example 26, 2-(dimethylamino)ethyl (S)-2-methylene-4-oxo-4-((1-(4-(trifluoromethyl)phenyl)ethyl)amino)butanoate], the figures for the Clint in data set [1] and in data set [3] were above 460 μL min^−1 10^−6 cells and 62 μL min^−1 10^−6 cells, respectively. Besides, the half-life at 10 μM in data set [2] is below 0.05 h; in data set [4] it was 0.4 h. The values for the IC50 with IL-6 (setting [5]) and with IL-1β (setting [6]) were 3.9 µM and 5.1 µM, respectively.

Take `C=C(CC(=O)N[C@@H](C)c1ccc(C(F)(F)F)cc1)C(=O)OC1(C)COC1` [Example 28, 3-methyloxetan-3-yl (S)-2-methylene-4-oxo-4-((1-(4-(trifluoromethyl)phenyl)ethyl)amino)butanoate]: the Clint in data set [1] is on record as above 460 μL min^−1 10^−6 cells; in data set [3] it was 80 μL min^−1 10^−6 cells. Besides, the half-life at 10 μM in data set [2] was below 0.05 h; in data set [4], 0.3 h. Also, the IC50 in the data set with IL-6 (THP-1, read-out: IL-6 (IC50)) is 5.6 µM; with IL-1β (THP-1, read-out: IL-1β (IC50)), 10.5 µM.

On to `C=C(CC(=O)N[C@@H](C)c1ccc(C(F)(F)F)cn1)C(=O)O` [Example 30, (S)-2-methylene-4-oxo-4-((1-(5-(trifluoromethyl)pyridin-2-yl)ethyl)amino) butanoic acid], for which the Clint in data set [1] and in data set [3] was below 3 μL min^−1 10^−6 cells in each case. The half-life at 10 μM in data set [2] and in data set [4] was above 7.67 h throughout. In addition, the IC50 is above 100 µM with IL-6 (setting [5]) and 9.2 µM with IL-1β (setting [6]).

On to `C=C(CC(=O)N[C@@H](C)c1ccc(C(F)(F)F)cn1)C(=O)OC1CS(=O)(=O)C1` [Example 33, 1,1-dioxidothietan-3-yl (S)-2-methylene-4-oxo-4-((1-(5-(trifluoromethyl)pyridin-2-yl)ethyl)amino)butanoate], for which the Clint in data set [1] was 205 μL min^−1 10^−6 cells; in data set [3], 151 μL min^−1 10^−6 cells. For the same compound, the results for the half-life at 10 μM in data set [2] and in data set [4] were 0.167 h and 0.183 h, respectively. In addition, the IC50 in the data set with IL-6 (setting [5]) amounted to 3.64 µM; in the data set on IL-1β (setting [6]), 1.82 µM.

Take `C=C(CC(=O)NC1(c2ccc(C(F)(F)F)cn2)CCC1)C(=O)O` [Example 39, 2-methylene-4-oxo-4-((1-(5-(trifluoromethyl)pyridin-2-yl)cyclobutyl)amino) butanoic acid]: the Clint in data set [1] and in data set [3] was below 3 μL min^−1 10^−6 cells in each case. Also, the half-life at 10 μM in data set [2] and in data set [4] was above 7.67 h in each case. In addition, the IC50 in the data set with IL-6 (setting [5]) is above 100 µM; with IL-1β (setting [6]), 15.4 µM.

As for `C=C(CC(=O)NC1CCc2cc(C(F)(F)F)ccc21)C(=O)O` (stereo not shown) [Example 40, 2-methylene-4-oxo-4-((5-(trifluoromethyl)-2,3-dihydro-1H-inden-1-yl)amino) butanoic acid], the Clint in data set [1] and in data set [3] was below 3 μL min^−1 10^−6 cells throughout. For the same compound, the half-life at 10 μM in data set [2] and in data set [4] was above 7.67 h throughout. Further, the IC50 with IL-6 (setting [5]) was above 100 µM; in the data set with IL-1β (setting [6]), 26.9 µM.
